Common to all, as to assay type: cell-based, human
The test system of test [1] is BM-MSCs. Kind of test: Alamar Blue cell viability assay. Particulars: compared to controls (2D and Matrigel). As to the method: In one embodiment, the hydrogels are screened for biocompatibility, cell attachment, and proliferation. Different concentrations of the peptides are tested for their biocompatibility of the cells within the constructs. […] Control is the cells incubated for 48 h without peptides.
The hBM-MSCs were cultured in T75 flasks and incubated in a CO2 incubator maintained at 37° ° C. with 5% CO2. Culture media were replaced every 2-3 days until the cells reached 80% confluency. Confluent cells were trypsinized and subcultured, and cells at passage 3-6 were used for the study. For the 3D culture, different peptides were sterilized by exposure to UV light for 30 min. Then, 200 μL of 3D constructs in the 48-well plate was formed by mixing the peptide solution (IVZK=3 mg/mL (5.42 mM); IVFK=4 mg/mL (7.31 mM)) with 40,000 cells suspended in 2×PBS. Culture plates were incubated for 5 min at 37° C., and the complete medium was added carefully to the culture plates. […] The morphology, cell proliferation, and mineralization of the cells in each scaffold were analyzed and compared. […]
A volume of 10 μL of Alamar blue stock solution was added to 100 μL of media in each well. […] The fluorescence was measured at an excitation wavelength of 530 nm, and the emission at 590 nm. The viability percentage was calculated against the control (2D).

A further test concerns MSCs. The experiment in a line: SEM of cell-matrix interaction. The settings on record: after 14 days of culture. The procedure: Scale bars are 5 and 10 μm, in the left and right panels respectively.
SEM was also used to determine the cell-matrix interaction. First, the cells encapsulated in hydrogels were fixed in 2.5% glutaraldehyde for overnight (4° C.) and then washed using PBS. The samples were subsequently incubated in 1% osmium tetroxide for one hour and washed with water. Afterwards, the dehydration was done by immersing them in increasing concentrations of ethanol: 30, 50, 70, 90 and 100%, 15 min each step. Then, the samples were processed in critical point dryer. The dried samples were then mounted and coated with 5 nm Ir thickness.

The test system of test [2] is BM-MSCs. The experiment in a line: Quantitative RT-PCR of osteogenic genes. As to the method: Real-time polymerase chain reaction (PCR) values of the BM-MSC gene expressions of the bone morphogenetic protein (BMP-2) (FIG. 37), bone sialoprotein 2 (IBSP) (FIG. 35), osteopontin (OPN) (FIG. 38), osterix (OSX) (FIG. 39), and RUNX2 (FIG. 36) are evaluated after 30 days of culture. […] In FIGS. 35-39, * mens p<0.05 and ** means p<0.001, indicating statistical significance.
The BM-MSCs were cultured on different scaffolds with an osteogenic medium for 4 weeks. Total RNA was extracted using the TRIzol™ reagent. RNA concentration and purity were measured using a NanoDrop® 8000 spectrophotometer (Thermo Fisher®). Complementary DNA (cDNA) was synthesized using the ImProm-II Reverse Transcription System. Primer sequences were taken from previously published studies and are summarized in below. Relative quantification was performed using the comparative CT (2-ΔΔCT) and normalized against glyceraldehyde 3-phosphate dehydrogenase (GAPDH), which was used as a housekeeping gene to calculate the fold change in gene expression. BM-MSCs on a 2D culture using basal media were used as controls.

The test system of a further test is HUVECs. Kind of test: In vitro angiogenesis study. As to the method:
When bone deficiency occurs, it often causes blood vessel damage. Blood vessels provide the necessary components to repair the region of bone defects by transferring oxygen and nutrients.^107, 108 In one embodiment, the capability of IVFK and IVZK hydrogels to support angiogenesis is also evaluated using HUVECs and compared with collagen, which is an essential component of the ECM and is known to support the angiogenesis of endothelial cells,^23 because the capillary system is a crucial component in bone regeneration. Viability of HUVECs in IVZK scaffold after culturing for 24 h can be observed the bright field image as shown in FIG. 45 and confocal images as shown in FIG. 46. In FIG. 46, live cells are stained in green by Calcein-AM, while dead cells are stained red by Ethidium homodimer. In FIGS. 45 and 46, the scale bar is 100 μm. Furthermore, the angiogenesis ability of IVZK scaffold is also measured by the vessels junctions (FIG. 48), number of nodes (FIG. 49) and, in total vessels length (FIG. 47) for 5 different microscopic pictures. […] In FIG. 50, the scale bar is 100 μm.
Peptide hydrogel or collagen was placed in a 24-well plate, and human umbilical vein endothelial cells (HUVECs) at 40,000 cells/well were added on top of the peptide gel or collagen. Cells were cultured in endothelial growth media for 24 h. Cells were then investigated using an inverted microscope, and images were analyzed by ImageJ using the Angiogenesis Analyzer.

Where [3] appears, read: 24 h, versus collagen positive control.

For “Ac-Ile-Val-Phe-Lys-NH2 (Ac-IVFK-NH2) [aromatic self-assembling tetrapeptide forming hydrogel scaffold]”, the “cell growth (Alamar Blue)” value in the test on BM-MSCs [1] is “significant increase in cell growth compared to both controls”. The “cell morphology by SEM” value in the test on MSCs is recorded as “elongated spindlelike morphology”. Also, the “expression of osteogenic genes OPN and BMP-2” value with BM-MSCs [2] (20 kPa hydrogel versus 50 kPa scaffold) is “able to support cell differentiation much better than the 50 kPa scaffold”. In the test with BM-MSCs [2] (after 30 days of culture), the “IBSP gene expression level” value is “highest”, the OPN gene expression entry is listed as “upregulated”, the OSX expression level entry was “low” and the Runx2 gene expression entry is on record as “higher”. Further, in the test on HUVECs (setting [3]), the junctions result is “no significant difference”, the nodes result is given as “no significant difference” and the “total length of tubes” value is “no significant difference”. Also, the “network formation of HUVECs” value in the test on HUVECs (after 24 h of culture) is on record as “forms dense network structures”.
